Test results reported in patent publication US20240287154A1, “MC3R AGONIST PEPTIDES” (The Regents of the University of Michigan, priority 2021, published 2024).
Non-standard residues stand in square brackets, D forms with d. Residues, ends and D or L forms follow the SMILES beside them. Nle = CCCC[C@H](N)C(=O)O; Aib = CC(C)(N)C(=O)O

Tests used:
[1] = in vitro; settings: for half-life at 1 µM / remaining at 5 min, 1 µM / remaining at 0.5 h, 1 µM / remaining at 1 h, 1 µM / remaining at 2 h, 1 µM / remaining at 4 h, 1 µM / remaining at 0.25 h, 1 µM: mouse, plasma
Procedure: Pooled mouse plasma was prepared and stored at −80° C. prior to use. 396 μL mouse plasma was incubated at 37° C. for 5 minutes in 1.5 mL microcentrifuge tubes. 4 μL of 100 μM test or control compound/peptide was added to each tube and incubated for 0.5, 15, 30, 60, 120, or 240 minutes. An aliquot of 40 μL of each reaction was stopped by the addition of 4 volume of cold acetonitrile containing 200 ng/mL of Setmelanotide as an internal standard (IS). The incubation solution was centrifuged at 3500 rpm for 10 minutes to precipitate protein. The supernatant was used for LC/MS/MS analysis. The natural log peak area ratio (compound peak […] area/internal standard peak area) was plotted against time and the gradient of the line determined.

[2] = target: T1, human MC3R (Homo sapiens, UniProt P41968); experiment: Intracellular cAMP levels in live cells, MC3R agonist activity; type: cell-based; settings: cAMP split-luciferase reporter cell line stably expressing human MC3R; direct agonist effect, measurement window 1
T1 construct: expressed in transfected cells
T1 sequence (P41968 whole entry): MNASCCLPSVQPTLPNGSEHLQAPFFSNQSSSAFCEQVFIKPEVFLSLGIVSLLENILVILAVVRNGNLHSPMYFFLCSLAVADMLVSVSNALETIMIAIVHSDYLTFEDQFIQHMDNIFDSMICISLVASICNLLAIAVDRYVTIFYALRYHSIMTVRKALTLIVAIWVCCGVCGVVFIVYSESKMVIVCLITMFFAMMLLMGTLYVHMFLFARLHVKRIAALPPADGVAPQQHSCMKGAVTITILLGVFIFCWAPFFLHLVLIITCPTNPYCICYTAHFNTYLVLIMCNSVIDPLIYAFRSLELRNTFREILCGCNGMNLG
Procedure: The stable cell lines were grown and maintained in selection media consisting of Dulbecco's modified Eagle media (DMEM) with 4.5 g/l D-glucose, and 4 mM L-glutamine (Thermo Fisher Scientific, Waltham, MA), supplemented with 10% fetal bovine serum, 100 units/ml penicillin, 100 μg/ml streptomycin, 2.5 μg/ml amphotericin B, 200 μg/ml hygromycin B (for positive selection of the GScAMP22f luciferase reporter), and Geneticin™ (G418) 700 μg/ml (for MC3R or MC4R selection). Actual serum concentration during the assay is estimated to be about 1%. Cell line identity is routinely verified by qPCR and MC3R- and MC4R-specific oligonucleotides.
The assay for the determination of the CAMP response in live cells was described previously. […] Ccells were seeded at a density of 20,000 cells per well using 384-well poly-D lysine-coated, clear bottom, and black-wall assay plates (Corning Inc. Corning, NJ). Cells were allowed to attach to the plates for 18 to 24 h after which growth media was removed and 20 ul of 4% D-luciferin (Promega) in CO2 independent, serum-free medium (Thermo Fisher Scientific) was added to each well. […] Intracellular cAMP levels were measured using an FDSS 7000EX Functional Drug Screening System (Hamamatsu Photonics, Hamamatsu, Japan) in the Center for Chemical Genomics at the Life Sciences Institute. This instrument allowed the in-line addition of test-peptides and receptor agonists while simultaneously acquiring the luminescence signal from live cells. […] A submaximal forskolin (20 μM) concentration was also included to serve as a normalization reference to account for cell number variations and differences in assay transducer efficiency between cell lines.
With this set up it was possible to evaluate the direct agonist effect of the test-peptides on the MC3R and MC4R cell lines during measurement window 1, while the antagonist profile in the presence of EC90 α-MSH was determined on measurement window 2. […] EC50 or IC50 potency values were determined by non-linear regression by fitting the data to a sigmoid four-parameter variable slope model using the GraphPad Prism version 8.4 software package (San Diego CA).

[3] = target: human MC4R (Homo sapiens, UniProt P32245); experiment: Intracellular cAMP levels in live cells, MC3R selectivity relative to MC4R; type: cell-based; settings: cAMP assays in human MC3R and human MC4R stable cell lines
Sequence of human MC4R (P32245 whole entry): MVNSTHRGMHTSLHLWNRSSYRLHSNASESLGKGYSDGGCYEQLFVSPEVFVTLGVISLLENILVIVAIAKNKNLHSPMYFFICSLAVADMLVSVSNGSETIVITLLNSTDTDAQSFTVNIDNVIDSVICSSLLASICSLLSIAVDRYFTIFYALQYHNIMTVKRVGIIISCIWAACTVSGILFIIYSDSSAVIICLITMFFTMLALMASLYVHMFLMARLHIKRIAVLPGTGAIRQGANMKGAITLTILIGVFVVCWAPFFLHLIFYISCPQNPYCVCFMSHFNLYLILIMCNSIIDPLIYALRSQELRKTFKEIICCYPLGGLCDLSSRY

CCCC[C@H](NC(=O)[C@@H](NC(C)=O)C(C)C)C(=O)N[C@H](C)C(=O)N[C@@H](Cc1c[nH]cn1)C(=O)N[C@@H](Cc1ccccc1)C(=O)N[C@@H](CCCNC(=N)N)C(=O)N[C@H](Cc1c[nH]c2ccccc12)C(=O)N[C@@H](CC(=O)O)C(=O)N[C@@H](CCCNC(=N)N)C(=O)N[C@@H](Cc1ccccc1)C(=O)NCC(=O)O [CTX-1121, Val-Nle-D-Ala-His-Phe-Arg-D-Trp-Asp-Arg-Phe-Gly] (Ac-V[Nle][dA]HFR[dW]DRFG-OH)
half-life at 1 µM [1]: 138 min | remaining at 5 min, 1 µM [1]: 118% | remaining at 0.5 h, 1 µM [1]: 91.1% | remaining at 1 h, 1 µM [1]: 81.7% | remaining at 2 h, 1 µM [1]: 68.3% | remaining at 4 h, 1 µM [1]: 33.1% | Mouse Plasma Stability, time point 0 min ([1]; pooled mouse plasma, 37° C.): 100% | Mouse Plasma Stability, time point 15 min ([1]; pooled mouse plasma, 37° C., 15 min, in % (unit assumed)): 120.25 | EC50 [2]: 3.1 nM | MC3R selectivity (relative to MC4R) [3]: 2,123

CCCC[C@H](NC(=O)[C@@H](NC(=O)[C@H](N)Cc1ccc(O)cc1)C(C)C)C(=O)N[C@H](C)C(=O)N[C@@H](Cc1c[nH]cn1)C(=O)N[C@@H](Cc1ccccc1)C(=O)N[C@@H](CCCNC(=N)N)C(=O)N[C@H](Cc1c[nH]c2ccccc12)C(=O)N[C@@H](CC(=O)O)C(=O)N[C@@H](CCCNC(=N)N)C(=O)N[C@@H](Cc1ccccc1)C(=O)NCC(=O)O [CTX-1125, D-Tyr-Val-Nle-D-Ala-His-Phe-Arg-D-Trp-Asp-Arg-Phe-Gly] (H-[dY]V[Nle][dA]HFR[dW]DRFG-OH)
half-life at 1 µM [1]: 141 min | remaining at 5 min, 1 µM [1]: 93.2% | remaining at 0.25 h, 1 µM [1]: 105% | remaining at 0.5 h, 1 µM [1]: 105% | remaining at 1 h, 1 µM [1]: 103% | remaining at 2 h, 1 µM [1]: 79.2% | remaining at 4 h, 1 µM [1]: 28.8% | Mouse Plasma Stability, time point 0 min ([1]; pooled mouse plasma, 37° C.): 100% | EC50 [2]: 1.7 nM | MC3R selectivity (relative to MC4R) [3]: 747

CCCC[C@H](NC(=O)[C@@H](NC(=O)[C@@H](N)Cc1ccc(O)cc1)C(C)C)C(=O)N[C@H](C)C(=O)N[C@@H](Cc1c[nH]cn1)C(=O)N[C@@H](Cc1ccccc1)C(=O)N[C@@H](CCCNC(=N)N)C(=O)N[C@H](Cc1c[nH]c2ccccc12)C(=O)N[C@@H](CC(=O)O)C(=O)N[C@H](CCCNC(=N)N)C(=O)N[C@@H](Cc1ccccc1)C(=O)NCC(=O)O [CTX-1126, Tyr-Val-Nle-D-Ala-His-Phe-Arg-D-Trp-Asp-D-Arg-Phe-Gly] (H-YV[Nle][dA]HFR[dW]D[dR]FG-OH)
half-life at 1 µM [1]: 1.61 min | remaining at 5 min, 1 µM [1]: 11.7% | remaining at 0.25 h, 1 µM [1]: 0.16% | remaining at 0.5 h, 1 µM [1]: 0.03% | Mouse Plasma Stability, time point 0 min ([1]; pooled mouse plasma, 37° C.): 100% | EC50 [2]: 3 nM | MC3R selectivity (relative to MC4R) [3]: 43

CCCC[C@H](NC(=O)[C@@H](NC(=O)[C@@H](N)Cc1ccc(O)cc1)C(C)C)C(=O)N[C@H](C)C(=O)N[C@@H](Cc1c[nH]cn1)C(=O)N[C@@H](Cc1ccccc1)C(=O)N[C@@H](CCCNC(=N)N)C(=O)N[C@H](Cc1c[nH]c2ccccc12)C(=O)N[C@@H](CC(=O)O)C(=O)N[C@@H](CCCNC(=N)N)C(=O)N[C@H](Cc1ccccc1)C(=O)NCC(=O)O [CTX-1127, Tyr-Val-Nle-D-Ala-His-Phe-Arg-D-Trp-Asp-Arg-D-Phe-Gly] (H-YV[Nle][dA]HFR[dW]DR[dF]G-OH)
half-life at 1 µM [1]: 1.28 min | remaining at 5 min, 1 µM [1]: 6.71% | remaining at 0.25 h, 1 µM [1]: 0.25% | remaining at 0.5 h, 1 µM [1]: 0.27% | remaining at 1 h, 1 µM [1]: 0.04% | Mouse Plasma Stability, time point 0 min ([1]; pooled mouse plasma, 37° C.): 100% | EC50 [2]: 2.5 nM | MC3R selectivity (relative to MC4R) [3]: 95

CCCC[C@H](NC(=O)[C@@H](NC(=O)[C@@H](N)Cc1ccc(O)cc1)C(C)C)C(=O)NC(C)(C)C(=O)N[C@@H](Cc1c[nH]cn1)C(=O)N[C@@H](Cc1ccccc1)C(=O)N[C@@H](CCCNC(=N)N)C(=O)N[C@H](Cc1c[nH]c2ccccc12)C(=O)N[C@@H](CC(=O)O)C(=O)N[C@@H](CCCNC(=N)N)C(=O)N[C@@H](Cc1ccccc1)C(=O)NCC(=O)O [CTX-1134, Tyr-Val-Nle-Aib-His-Phe-Arg-D-Trp-Asp-Arg-Phe-Gly] (H-YV[Nle][Aib]HFR[dW]DRFG-OH)
half-life at 1 µM [1]: 2.77 min | remaining at 5 min, 1 µM [1]: 28.6% | remaining at 0.25 h, 1 µM [1]: 2.97% | remaining at 0.5 h, 1 µM [1]: 0.14% | remaining at 1 h, 1 µM [1]: 0.02% | Mouse Plasma Stability, time point 0 min ([1]; pooled mouse plasma, 37° C.): 100% | EC50 [2]: 2.5 nM | MC3R selectivity (relative to MC4R) [3]: 566
